Assay type in all cases: cell-based, human
For one assay, the system named is HEK 293T cells. Put plainly: Cell cycle arrest by thymidine treatment, flow cytometry with DAPI or EdU incorporation. As to conditions: 4 mM thymidine, 24 hrs post treatment. The protocol:
HEK 293T cells were treated with thymidine and analyzed using flow cytometry with DAPI (4′,6-diamidino-2-phenylindole) or EdU (5-ethynyl-2′-deoxyuridine) incorporation at 24 hrs post treatment.
FIG. 1A-1B. Verification of cell cycle arrest by thymidine treatment. HEK293T cells were split into 10 cm′ cell culture dishes at 3.0e6 cells/plate. Thymidine stock was prepared with molecular biology grade distilled water at a concentration of 200 mM. The final concentration of thymidine in the culture medium was 4 mM. Two hrs before harvest, cells were incubated with EdU and were harvested for flow cytometry. DAPI staining and EdU assay were performed in accordance with the manufacturer's protocol.
A general note: A flow cytometer gives signals particle by particle.

For assay [1], the system named is HEK293T cells. As to the kind of experiment: Total cell count prior to harvesting the cell pellet, rAAV packaging cultures. As to conditions: counted prior to harvest at 72 hrs post transfection. The protocol: (§1) The effect of thymidine treatment for rAAV packaging was assessed with the following description. rAAV manufacturing in HEK293T cells was achieved by transfecting cells with the transgene (ss-CAG-eGFP), the adenoviral helper plasmid pHelper, and rAAV2(Rep/Cap) helper plasmid in accordance with the standard protocol of PEI (polyethyleneimine) transfection (Ojala et al. 2018). Thymidine was added onto media without media change at 24 or 48 hrs post transfection and then cell pellets were harvested at 72 hrs post transfection (FIG. 2).
(§2) The number of total cells was counted for the evaluation of cell growth prior to harvesting the cell pellet (FIG. 3A). […] Next, cell lysate samples were incubated with Benzonase as well as DNase to remove residual plasmid, and rAAV titer with or without thymidine treatment was determined by quantitative polymerase chain reaction (qPCR) with specific primers for the transgene, eGFP (FIG. 3B). rAAV titer was then normalized to total cell count to compare viral titers in vg/cell (viral genomes/cell) (FIG. 3C).
FIG. 3A-3C. rAAV titer at 72 h with thymidine treatment. HEK293T cells were split into 10 cm′ cell culture dishes at 3.0×10^6 cells/plate and transfected with the plasmids for rAAV packaging. Cell pellets at 72 hrs post transfection were lysed by freezing and thawing and then incubated with Benzonase, followed by DNase. […]

Assay [2] concerns HEK293T cells. Put plainly: rAAV titer by qPCR at 72 hrs post transfection, rAAV packaging in HEK293T cells. On the procedure: as §1, §2
FIG. 3A-3C. rAAV titer at 72 h with thymidine treatment. HEK293T cells were split into 10 cm′ cell culture dishes at 3.0×10^6 cells/plate and transfected with the plasmids for rAAV packaging. Cell pellets at 72 hrs post transfection were lysed by freezing and thawing and then incubated with Benzonase, followed by DNase. Subsequent Proteinase K digestion released AAV genome ssDNA from the AAV vector, which were subjected into qPCR for measuring rAAV genome copy number. Error bars, mean±SD. *P<0.05, (All statistics are the result of a student's two tailed t-test with paired variance).
(In general: Real-time PCR tracks product formation cycle by cycle.)

In a further assay the test system is HEK293 cells. As to the kind of experiment: rAAV titer by qPCR at 96 hrs post transfection, rAAV packaging in HEK293 cells. Particulars: HEK293, thymidine added 24 hrs post transfection, harvest at 96 hrs. On the procedure:
To assess the generality of the result, HEK293 cells were tested, using a different packaging method than that used for HEK293T cells. HEK293 cells were seeded at high concentration and incubated for 72 hrs to reach 100% confluency and then transfected with plasmids. Thymidine was added 24 hrs post transfection, and pellets were harvested at 96 hrs post transfection (FIG. 4).
FIG. 5. HEK293 Cells were seeded at 1.0×10^5 cell/cm′ into 10 cm′ cell culture dish and transfected with the plasmids for rAAV packaging. Thymidine was treated at 24 hrs post transfection and cell pellets were harvested at 96 hrs post transfection. rAAV titer was measured by qPCR in the same method of FIG. 3. Error bars, mean±SD.

Assay [3] concerns HEK293T cells. Put plainly: rAAV titer following transfection with and without pHelper. Particulars: thymidine added at 24 hrs post transfection, harvest at 72 hrs. An excerpt:
Plasmids containing adenoviral genes that promote AAV replication and vector production, such as pHelper, have previously been essential for rAAV packaging. That is, AAV requires co-infection of helper virus or introduction of a DNA-damaging agent to complete life cycle (Yakobson, Koch, and Winocour 1987; Yalklnoglu et al. 1988), functions that in rAAV manufacturing are typically replaced by transfection with a plasmid such as pHelper. The present disclosure provides the use of thymidine as a replacement for pHelper. The positive control cells were transfected with the three plasmids (AAV vector, AAV helper, pHelper) while the negative control cells were transfected without pHelper. In some samples, thymidine was added at 24 hrs post transfection (FIG. 6).
FIG. 6. HEK293T cells were transfected with plasmids in accordance with the indication and then thymidine was added at 24 hrs post transfection. All cells were harvested at 72 hrs post transfection and rAAV titer were determined. Error bars, mean±SD.

As to `Cc1cn([C@H]2C[C@H](O)[C@@H](CO)O2)c(=O)[nH]c1=O` [thymidine], the EdU incorporation entry in the assay on HEK 293T cells (EdU 2 hrs before harvest) is given as “no incorporation has occurred”. Besides, in the assay on HEK 293T cells (flow cytometry), the “Cell cycle phase of cell population, total DNA stained by DAPI” value is “predominantly in the S-phase section”. Moreover, in the assay with HEK293T cells [1], the “Total cell count vs control group” value was “lower cell count than the control group”. In addition, the “rAAV titer in vg/ml, fold higher than control” value was found to be 2.77 fold with HEK293T cells [2] (thymidine treatment 24-72h post transfection, qPCR) and 2.19 fold in the assay with HEK293T cells [2] (thymidine treatment 48-72h post transfection, qPCR). In addition, the “rAAV titer, fold higher than that on control cells” value in the assay with HEK293T cells [2] (thymidine treatment 24-72h post transfection, qPCR, basis not printed (second value after vg/ml)) worked out at 5.38 fold. In addition, the “rAAV titer in vg/cell, fold higher than control” value with HEK293T cells [2] (thymidine treatment 48-72h post transfection, qPCR normalized to total cell count) amounted to 3.52 fold. The “rAAV titer in vg/ml, fold higher than control cells” value in the assay on HEK293 cells is listed as 1.75 fold. In the assay with HEK293T cells [3], the “rAAV packaging in the absence of pHelper” value is on record as “rAAV was packaged in the absence of pHelper only when the thymidine was added”.

(Values after patent publication US20230111672A1, “COMPOSITIONS AND METHODS FOR PRODUCTION OF RECOMBINANT ADENO-ASSOCIATED VIRUS” (The Regents of the University of California, priority 2020, published 2023).)
